# Measurements taken from paper PMC9199881 (Clinical and Translational Science, 2022).
# Tests used:
# healthy subjects [1] = experiment: Concentration-QTc; format: in vivo, human; conditions: Part B; 400 mg alone
# healthy subjects [2] = experiment: Safety assessment; format: in vivo, human; conditions: Part B; 400 mg alone
# [3] = Plasma pharmacokinetics, Part B
# healthy volunteers = conditions: cited from earlier work
# healthy subjects [4] = conditions: 100 mg twice daily (b.i.d.); cited from earlier work
# [5] = human, in vivo, 400 mg, Mean (SD), 400 mg single dose alone
# [6] = human, in vivo, 400 mg, Median (range), 400 mg single dose alone
smiles,measurement,setting,value
"COc1c(N2C[C@@H]3CCCN[C@@H]3C2)c(F)cc2c(=O)c(C(=O)O)cn(C3CC3)c12 [Moxifloxacin, moxifloxacin, reference compound]",predicted ΔΔQTcF at the observed geometric mean Cmax,healthy subjects [1],14.7 ms
same,"Treatment-related TEAE: Abdominal pain, n (%)",healthy subjects [2],1 (2.8) n (%)
same,"Treatment-related TEAE: Diarrhea, n (%)",healthy subjects [2],1 (2.8) n (%)
same,"Treatment-related TEAE: Dizziness, n (%)",healthy subjects [2],1 (2.8) n (%)
same,"Treatment-related TEAE: Dysgeusia, n (%)",healthy subjects [2],0 n (%)
same,"Treatment-related TEAE: Frequent bowel movements, n (%)",healthy subjects [2],0 n (%)
same,"Treatment-related TEAE: Gastrointestinal disorders, n (%)",healthy subjects [2],1 (2.8) n (%)
same,"Treatment-related TEAE: Headache, n (%)",healthy subjects [2],0 n (%)
same,"Treatment-related TEAE: Herpex simplex, n (%)",healthy subjects [2],0 n (%)
same,"Treatment-related TEAE: Infections and infestations, n (%)",healthy subjects [2],1 (2.8) n (%)
same,"Treatment-related TEAE: Lethargy, n (%)",healthy subjects [2],1 (2.8) n (%)
same,"Treatment-related TEAE: Nausea, n (%)",healthy subjects [2],1 (2.8) n (%)
same,"Treatment-related TEAE: Nervous system disorders, n (%)",healthy subjects [2],2 (5.6) n (%)
same,"Treatment-related TEAE: Somnolence, n (%)",healthy subjects [2],0 n (%)
same,"Treatment-related TEAE: Subjects with ≥1 TEAE, n (%)",healthy subjects [2],3 (8.3) n (%)
same,"Treatment-related TEAE: Vomiting, n (%)",healthy subjects [2],1 (2.8) n (%)
same,incidence of treatment-related TEAEs,healthy subjects [2],8.3%
same,participants with diarrhea,healthy subjects [2],2.8%
same,"Tmax, Median (range)",[3]; 400 mg single dose alone,2.1 (0.6–10) h
same,AUC(0-t),"[3]; human, in vivo, 400 mg, AUC0–last, Mean (SD), 400 mg single dose alone",22700 ng·h/mL
same,AUC(0-inf),"[3]; human, in vivo, 400 mg, AUC0–∞, Mean (SD), 400 mg single dose alone",27400 ng·h/mL
same,Cmax,[3]; [5],2360 ng/mL
same,Cmax,[3]; [6],2310 ng/mL
same,Cmax,"[3]; human, in vivo, 400 mg, range, single moxifloxacin 400 mg dose",1230 to 4080 ng/mL
same,Tmax,[3]; [5],2.2 h
same,Tmax,[3]; [6],~2 h
same,geometric mean peak concentration,[3]; moxifloxacin 400 mg,2260 ng/mL
CC#CC(=O)N1CCC[C@H]1c1nc(-c2ccc(C(=O)Nc3ccccn3)cc2)c2c(N)nccn12 [acalabrutinib],prolongation of the QTc interval or clinically relevant ECG effects,healthy volunteers,no prolongation of the QTc interval or clinically relevant ECG effects
C=CC(=O)N1CCC(CNc2ncnc(N)c2-c2ccc(Oc3ccccc3)cc2)CC1 [evobrutinib],prolongation of the QTc interval or clinically relevant ECG effects,healthy volunteers,no prolongation of the QTc interval or clinically relevant ECG effects
CC(C)c1nc(CN(C)C(=O)N[C@H](C(=O)N[C@@H](Cc2ccccc2)C[C@H](O)[C@H](Cc2ccccc2)NC(=O)OCc2cncs2)C(C)C)cs1 [ritonavir],effect on QT,healthy subjects [4],did not alter QT
C=CC(=O)N1CCC([C@@H]2CCNc3c(C(N)=O)c(-c4ccc(Oc5ccccc5)cc4)nn32)CC1 [zanubrutinib],prolongation of the QTc interval or clinically relevant ECG effects,healthy volunteers,no prolongation of the QTc interval or clinically relevant ECG effects
